How the values were obtained:
[1] = tested on: human ovarian cancer cells A2780; experiment: proliferation inhibitory activity against human ovarian cancer cell A2780 (CellTiter-Glo); type: cell-based; settings: A2780, 72 h, 1 μM test compound, 3 days of culture, read-out: proliferation inhibitory rate (%) of A2780 cells
Method: The proliferation inhibitory activity of the compound of the present invention against human ovarian cancer cell A2780 was evaluated by the following method.
Human ovarian cancer cells A2780 were seeded in a 384 well culture plate at 1000 cells in 30 μL of medium per well by using RPMI-1640 medium (Wako Pure Chemical Industries, Ltd.) containing 10% fetal bovine serum and penicillin/streptomycin. The next day, 10 μL of RPMI-1640 medium containing the test compound was added to the cells. After 3 days of culture, 20 μL of CellTiter-Glo Luminescent Cell Viability Assay solution (Promega) was added. The luminescence signal was measured using EnVision (PerkinElmer) and the inhibitory rate (%) of the test compound was calculated with a well free of seeding of cell as 100% inhibition.

[2] = target: T1, human PRS protein (His-Avi-hEPRS (998-1512)) (Homo sapiens, UniProt P07814); experiment: PRS inhibitory activity ([32P]pyrophosphate exchange enzyme assay); type: biochemical; settings: 300 nM test compound; read-out: inhibitory rate (%) of PRS
T1 construct: to construct His-Avi-hEPRS (998-1512) expression plasmid; His tag (N); Avi tag (N); TEV cleavage site (ENLYFQG, then S; inferred from the forward primer hEPRS-TEV-NheF) (N); made in house; host or cells: E. coli BL21(DE3)
T1 sequence (P07814 998-1512 limits assumed): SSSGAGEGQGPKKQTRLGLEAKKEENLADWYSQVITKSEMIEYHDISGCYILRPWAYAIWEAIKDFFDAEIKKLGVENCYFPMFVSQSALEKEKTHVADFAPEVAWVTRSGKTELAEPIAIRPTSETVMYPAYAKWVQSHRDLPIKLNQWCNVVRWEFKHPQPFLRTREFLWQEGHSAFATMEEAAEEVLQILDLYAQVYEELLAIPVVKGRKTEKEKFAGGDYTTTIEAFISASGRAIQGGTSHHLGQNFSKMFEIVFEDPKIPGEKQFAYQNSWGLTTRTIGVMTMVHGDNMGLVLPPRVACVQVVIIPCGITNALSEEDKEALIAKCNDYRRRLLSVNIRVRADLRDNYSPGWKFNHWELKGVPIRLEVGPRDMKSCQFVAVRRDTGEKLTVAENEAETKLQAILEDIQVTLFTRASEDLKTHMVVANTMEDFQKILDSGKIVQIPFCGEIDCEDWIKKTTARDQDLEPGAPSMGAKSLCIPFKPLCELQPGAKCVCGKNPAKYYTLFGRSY
Method: The PRS inhibitory activity of the compounds of the present invention was evaluated by the following method.
An expression plasmid of Catalytic Domain of human EPRS was obtained by PCR using human skeletal muscle cDNA Library (Takara Bio Inc.) as a template and 2 kinds of Primers 5′-[…]-3′ (hEPRS-TEV-NheF) (SEQ ID NO: 1) and 5′-[…]-3′ (hEPRS-St-Not-R) (SEQ ID NO: 2). PCR was performed using PrimeStar GXL DNA Polymerase (Takara Bio Inc.) and included (1) 98° C., 1 min, (2) 35 cycles of 98° C., 10 sec, 65° C., 10 sec, 72° C., 1 min, and (3) reaction at 72° C., 1 min. This was cleaved with Nhe I and Not I (Takara Bio Inc.) and inserted using Ligation High (TOYOBO CO., LTD.) into the Nhe I/Not I site of pET21a (Novagen) with His-Avitag inserted thereinto. This was introduced into ECOS JM109 (NIPPON GENE CO., LTD.) to construct His-Avi-hEPRS (998-1512) expression plasmid.
Recombinant human PRS protein was prepared by transforming the His-Avi-hEPRS (998-1512) expression plasmid prepared above into ECOS Competent E. coli BL21(DE3) (NIPPON GENE CO., LTD.). Escherichia coli obtained by transformation was inoculated into 300 mL of LB medium (1% peptone, 0.5% yeast extract, 0.5% sodium chloride, 0.01% ampicillin) and cultured at 30° C. for 16 hr. The obtained culture medium was transferred into a jar culture tank charged with 6 L of the main fermentation medium (0.3% potassium dihydrogen phosphate, 0.6% disodium hydrogen phosphate, 0.1% ammonium chloride, 0.05% sodium chloride, 0.024% magnesium sulfate, 0.02% NEWPOL LB-625, 1.5% sorbitol, 1.5% casamino acid, 0.5% yeast extract, 0.01% ampicillin) and culturing was started at 37° C., quantity of airflow 5 L/min, stirring rotating speed 400 rpm. At the time point when the turbidity of the culture medium reached about 550 Klett units, the culture temperature was lowered to 16° C., isopropyl-β-D-thiogalactopyranoside (IPTG) was added to the final concentration 0.1 mM, and culturing was performed for another 16 hr to induce expression of human PRS. After completion of culturing, the culture medium was centrifuged at 5,000 rpm for 10 min. The obtained human PRS expressing Escherichia coli was suspended in a buffer containing 50 mM Tris-HCl (pH 8.0), 150 mM NaCl, 1 mM DTT, 5 U/ml Benzonase, 20 mM Imidazole and sonicated using Sonifier (BRANSON). The homogenate was centrifuged (33,000×G, 60 min, Beckman Coulter), the obtained supernatant was subjected to adsorption by passage through Ni-NTA Superflow (QIAGEN) column equilibrated in advance with 50 mM Tris-HCl (pH 8.0), 300 mM NaCl, 1 mM DTT, and elution was performed with a buffer containing 50 mM Tris-HCl (pH 8.0), 300 mM NaCl, 1 mM DTT, 250 mM Imidazole. Furthermore, gel filtration was performed using Superdex200 pg column equilibrated in advance with a buffer containing 50 mM Tris-HCl (pH 8.0), 150 mM NaCl, 1 mM DTT, 10% glycerol to give purified human PRS protein. The protein concentration was measured using BCA Protein Assay Kit (PIERCE) and BSA as the standard.
A test compound was dissolved in 5 μL of an assay buffer (50 mM Tris-HCl (pH 7.5), 20 mM KCl, 1 mM DTT, 0.01% Tween 20) and incubated for 60 min with 5 μL of 40 nM human PRS protein dissolved in the assay buffer containing 40 mM MgCl2. An enzyme reaction of the human PRS protein was started by adding 10 μL of a substrate solution containing 300 μM ATP, 160 μM L-Proline, 400 μM pyrophosphate, [^32P]pyrophosphate (PerkinElmer) prepared to 1 MBq/mL. After incubation at room temperature for 30 min, the reaction was discontinued by adding 50 μL of discontinuation/washing solution (1M HCl, 200 mM sodium pyrophosphate) to the reaction mixture. The reaction solution was transferred to a filter plate (Merck Millipore, Billerica, Mass.) previously added with 200 μL of charcoal solution (0.5% HCl solution containing 10% charcoal (w/v)). […]

## CCn1c(C2CCCC2)nc2ccnc(C(=O)NCc3cc(F)cc(-c4cnn(C)c4)c3)c21 [Example 101, 2-cyclopentyl-3-ethyl-N-(3-fluoro-5-(1-methyl-1H-pyrazol-4-yl)benzyl)-3H-imidazo[4,5-c]pyridine-4-carboxamide]
[1]
  inhibition at 1 µM: 98%
[2]
  inhibition at 0.3 µM: 102%

## Cn1cc(-c2cc(C#N)cc(CNC(=O)c3ncnc4nc(C5CCCO5)n(C)c34)c2)cn1 (stereo not drawn) [Example 23, N-(3-cyano-5-(l-methyl-1H-pyrazol-4-yl)benzyl)-7-methyl-8-(tetrahydrofuran-2-yl)-7H-purine-6-carboxamide]
[1]
  inhibition at 1 µM: 69%
[2]
  inhibition at 0.3 µM: 102%

## Cn1cc(NC(=O)c2cccc(CNC(=O)c3nccc4nc(C5CCCC5)[nH]c34)c2)cn1 [Example 106, 2-cyclopentyl-N-(3-((1-methyl-1H-pyrazol-4-yl)carbamoyl)benzyl)-3H-imidazo[4,5-c]pyridine-4-carboxamide]
[1]
  inhibition at 1 µM: 84%
[2]
  inhibition at 0.3 µM: 99%

## Cn1cc(-c2cc(F)cc(CNC(=O)c3nccc4nc(CC5CCCC5)[nH]c34)c2)cn1 [Example 104, 2-(cyclopentylmethyl)-N-(3-fluoro-5-(1-methyl-1H-pyrazol-4-yl)benzyl)-3H-imidazo[4,5-c]pyridine-4-carboxamide]
[1]
  inhibition at 1 µM: 68%
[2]
  inhibition at 0.3 µM: 98%

## O=C(NCc1ccccc1Cl)c1ncnc2nc(C3CCCC3)[nH]c12 [Example 1, N-(2-chlorobenzyl)-8-cyclopentyl-7H-purine-6-carboxamide]
[1]
  inhibition at 1 µM: 60%
[2]
  inhibition at 0.3 µM: 98%

## Cn1ncc(-c2cc(F)cc(CNC(=O)c3ncnc4nc(C5CCCC5)[nH]c34)c2)n1 [Example 71, 8-cyclopentyl-N-(3-fluoro-5-(2-methyl-2H-1,2,3-triazol-4-yl)benzyl)-7H-purine-6-carboxamide]
[1]
  inhibition at 1 µM: 70%
[2]
  inhibition at 0.3 µM: 100%

## Cn1cc(-c2cc(F)cc(CNC(=O)c3ncnc4nc(C5CCCCO5)n(C)c34)c2)cn1 (stereo not shown) [Example 63, N-(3-fluoro-5-(1-methyl-1H-pyrazol-4-yl)benzyl)-7-methyl-8-(tetrahydro-2H-pyran-2-yl)-7H-purine-6-carboxamide]
[1]
  inhibition at 1 µM: 98%
[2]
  inhibition at 0.3 µM: 102%

## Cn1cc(-c2cc(F)cc(CNC(=O)c3ncnc4nc(C5CCCC5)n(C)c34)c2)nn1 [Example 7, 8-cyclopentyl-N-(3-fluoro-5-(1-methyl-1H-1,2,3-triazol-4-yl)benzyl)-7-methyl-7H-purine-6-carboxamide]
[1]
  inhibition at 1 µM: 95%
[2]
  inhibition at 0.3 µM: 102%

## Cn1cc(-c2cccc(CNC(=O)c3nccc4nc(C5CCCC5)[nH]c34)c2)cn1 [Example 84, 2-cyclopentyl-N-(3-(1-methyl-1H-pyrazol-4-yl)benzyl)-3H-imidazo[4,5-c]pyridine-4-carboxamide]
[1]
  inhibition at 1 µM: 97%
[2]
  inhibition at 0.3 µM: 100%

## Cn1cc(-c2cc(F)cc(CNC(=O)c3nccc4nc(CC5CC5)[nH]c34)c2)cn1 [Example 126, 2-(cyclopropylmethyl)-N-(3-fluoro-5-(1-methyl-1H-pyrazol-4-yl)benzyl)-3H-imidazo[4,5-c]pyridine-4-carboxamide]
[1]
  inhibition at 1 µM: 56%
[2]
  inhibition at 0.3 µM: 98%

## Cc1cc(-c2cc(F)cc(CNC(=O)c3cc(N4CC[C@@](C#N)(C5CC5)C4=O)cc(C)n3)c2)ccn1 [Example 209, 4-((3S)-3-cyano-3-cyclopropyl-2-oxopyrrolidin-1-yl)-N-(3-fluoro-5-(2-methylpyridin-4-yl)benzyl)-6-methylpyridine-2-carboxamide]
[1]
  inhibition at 1 µM: 80%
[2]
  inhibition at 0.3 µM: 100%

## CC(C)n1cc(-c2cc(F)cc(CNC(=O)c3ncnc4nc(C5CCCC5)[nH]c34)c2)cn1 [Example 11, 8-cyclopentyl-N-(3-fluoro-5-(1-isopropyl-1H-pyrazol-4-yl)benzyl)-7H-purine-6-carboxamide]
[1]
  inhibition at 1 µM: 95%
[2]
  inhibition at 0.3 µM: 102%

## Cn1cc(-c2cc(F)cc(CNC(=O)c3ncnc4nc(C5CCOC5)[nH]c34)c2)cn1 (stereo not shown) [Example 24, N-(3-fluoro-5-(1-methyl-1H-pyrazol-4-yl)benzyl)-8-(tetrahydrofuran-3-yl)-7H-purine-6-carboxamide]
[1]
  inhibition at 1 µM: 57%
[2]
  inhibition at 0.3 µM: 96%

## Cc1cc(CNC(=O)c2cc(N3CC[C@@](C#N)(C4CC4)C3=O)cc(C)n2)cc(-c2cnn(C)c2)c1 [Example 217, 4-((3S)-3-cyano-3-cyclopropyl-2-oxopyrrolidin-1-yl)-6-methyl-N-(3-methyl-5-(1-methyl-1H-pyrazol-4-yl)benzyl)pyridine-2-carboxamide]
[1]
  inhibition at 1 µM: 80%
[2]
  inhibition at 0.3 µM: 101%

## Cn1cc(-c2cc(F)cc(CNC(=O)c3ncnc4nc(C5CCCCO5)[nH]c34)c2)cn1 (stereo not shown) [Example 31, N-(3-fluoro-5-(1-methyl-1H-pyrazol-4-yl)benzyl)-8-(tetrahydro-2H-pyran-2-yl)-7H-purine-6-carboxamide]
[1]
  inhibition at 1 µM: 97%
[2]
  inhibition at 0.3 µM: 102%

## Cc1cc(N2C(=O)[C@](C#N)(C3CC3)C[C@@H]2C)cc(C(=O)NCc2cc(F)cc(-c3cnn(C)c3)c2)n1 [Example 221, 4-((3S,5S)-3-cyano-3-cyclopropyl-5-methyl-2-oxopyrrolidin-1-yl)-N-(3-fluoro-5-(1-methyl-1H-pyrazol-4-yl)benzyl)-6-methylpyridine-2-carboxamide]
[1]
  inhibition at 1 µM: 64%
[2]
  inhibition at 0.3 µM: 99%

## Cn1cc(-c2cc(F)cc(CNC(=O)c3nccc4nc(C5CCCC5)n(CCO)c34)c2)cn1 [Example 115, 2-cyclopentyl-N-(3-fluoro-5-(1-methyl-1H-pyrazol-4-yl)benzyl)-3-(2-hydroxyethyl)-3H-imidazo[4,5-c]pyridine-4-carboxamide]
[1]
  inhibition at 1 µM: 94%
[2]
  inhibition at 0.3 µM: 101%
